The target in the assay is histamine H4 receptor (Homo sapiens, UniProt Q9H3N8). Kind of assay: In vitro histamine H4 potency in FLIPR (Ca2+ flux, HEK-293 cells coexpressing Gαqi5). It counts as cell-based. On the set-up: expressed in transfected cells. Conditions: Kb for antagonists and inverse agonists, EC50 for partial agonists. The method in brief:
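Fluo-4-loaded cells read on FLIPR for intracellular Ca2+ rise after compound addition, with pre-addition fluorescence subtracted. Peak responses per concentration expressed as % of the full-agonist histamine response. Concentration–response fits give Kb for antagonists/inverse agonists and EC50 for partial agonists.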
A general note: Calcium assays in cells follow changes in intracellular calcium, usually with a dye or a luminescent sensor.
histamine H4 receptor, sequence (Q9H3N8 whole entry): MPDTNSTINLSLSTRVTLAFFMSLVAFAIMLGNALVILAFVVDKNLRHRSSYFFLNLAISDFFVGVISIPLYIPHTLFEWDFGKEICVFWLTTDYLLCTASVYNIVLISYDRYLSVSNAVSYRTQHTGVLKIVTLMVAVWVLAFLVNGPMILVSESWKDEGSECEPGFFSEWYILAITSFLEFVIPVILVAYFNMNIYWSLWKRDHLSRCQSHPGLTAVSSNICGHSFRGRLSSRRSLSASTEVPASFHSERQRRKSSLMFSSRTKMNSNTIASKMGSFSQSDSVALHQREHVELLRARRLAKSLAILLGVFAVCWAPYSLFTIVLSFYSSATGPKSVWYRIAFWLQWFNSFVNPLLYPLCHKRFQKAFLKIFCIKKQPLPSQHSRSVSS
`Nc1nc2c(c(N3CC[C@H](N)C3)n1)CCCCCc1ccccc1-2` [Example 25, 4-((S)-3-Amino-pyrrolidin-1-yl)-6,7,8,9-tetrahydro-5H-1,3-diaza-dibenzo[a,c]cyclononen-2-ylamine] returned a Potency of 0.646 µM. The figure for `Nc1nc2c(c(N3CCC4(CCNC4)CC3)n1)CCCc1ccccc1-2` [Example 60, 4-(2,8-diazaspiro[4.5]dec-8-yl)-6,7-dihydro-5H-benzo[6,7]cyclohepta[1,2-d]pyrimidin-2-amine] is 0.724 µM; for `CNC1CN(c2nc(N)nc3c2CCCc2ccc(F)cc2-3)C1` [Example 12, 10-Fluoro-4-(3-methylamino-azetidin-1-yl)-6,7-dihydro-5H-benzo[6,7]cyclohepta[1,2-d]pyrimidin-2-ylamine] it is 0.0074 µM. Turning to `CN1CCC2CN(c3nc(N)nc4c3CCCc3ccccc3-4)CC2C1` (stereo not drawn) [Example 85, 4-(5-Methyl-octahydro-pyrrolo[3,4-c]pyridin-2-yl)-6,7-dihydro-5H-benzo[6,7]cyclohepta[1,2-d]pyrimidin-2-ylamine], the Potency was 0.085 µM. `CC1CCN(c2nc(N)nc3c2CCCc2ccccc2-3)CCN1` (stereo not drawn) [Example 67, 4-(5-methyl-1,4-diazepan-1-yl)-6,7-dihydro-5H-benzo[6,7]cyclohepta[1,2-d]pyrimidin-2-amine]: the Potency was 0.069 µM. `Nc1nc2c(c(N3CCNCC3)n1)CCOc1cc(I)ccc1-2` [Example 101, 9-Iodo-4-piperazin-1-yl-5,6-dihydro-7-oxa-1,3-diaza-dibenzo[a,c]cyclohepten-2-ylamine] returned a Potency of 0.269 µM. The figure for `CN[C@@H]1CCN(c2nc(N)nc3c2CCSc2ccccc2-3)C1` [Example 34, 4-(3-(R)-Methylamino-pyrrolidin-1-yl)-5,6-dihydro-7-thia-1,3-diaza-dibenzo[a,c]cyclohepten-2-ylamine] is 0.0042 µM; for `Nc1nc2c(c(N3CC4(CCCNC4)C3)n1)CCCc1ccccc1-2` [Example 77, 4-(2,6-Diaza-spiro[3.5]non-2-yl)-6,7-dihydro-5H-benzo[6,7]cyclohepta[1,2-d]pyrimidin-2-ylamine] it is 9.333 µM; for `CNC(=O)Nc1nc2c(c(N3CCNCC3)n1)CCCc1ccccc1-2` [Example 90, 1-Methyl-3-(4-piperazin-1-yl-6,7-dihydro-5H-benzo[6,7]cyclohepta[1,2-d]pyrimidin-2-yl)-urea] it is 25.119 µM. The figure for `CN[C@@H]1CCN(c2nc(N)nc3c2CCOc2ccc(OC)cc2-3)C1` [Example 47, 10-methoxy-4-[(3R)-3-(methylamino)pyrrolidin-1-yl]-5,6-dihydro[1]benzoxepino[5,4-d]pyrimidin-2-amine] is 0.912 µM; for `Nc1nc2c(c(N3CC[C@@H]4CNC[C@@H]43)n1)CCCc1ccccc1-2` [Example 19, 4-((3aR,6aR)-Hexahydro-pyrrolo[3,4-b]pyrrol-1-yl)-6,7-dihydro-5H-benzo[6,7]cyclohepta[1,2-d]pyrimidin-2-ylamine] it is 0.603 µM. The figure for `Nc1nc(OC2CCNCC2)c2c(n1)-c1ccccc1CCC2` [Example 72, 4-(Piperidin-4-yloxy)-6,7-dihydro-5H-benzo[6,7]cyclohepta[1,2-d]pyrimidin-2-ylamine] is 1.097 µM; for “4-(4-Dimethylamino-piperidin-1-yl)-6,7-dihydro-5H-benzo[6,7]cyclohepta[1,2-d]pyrimidin-2-ylamine [Example 114]” it is 0.017 µM. For the molecule `Nc1nc2c(c(N3CC[C@H]4CNC[C@H]43)n1)CCCCCc1ccccc1-2` [Example 27, 4-((3aS,6aS)-Hexahydro-pyrrolo[3,4-b]pyrrol-1-yl)-6,7,8,9-tetrahydro-5H-1,3-diaza-dibenzo[a,c]cyclononen-2-ylamine], the Potency was found to be 16.596 µM. For `Nc1nc2c(c(N3CCCNCCC3)n1)CCCc1ccccc1-2` [Example 61, 4-(1,5-diazocan-1-yl)-6,7-dihydro-5H-benzo[6,7]cyclohepta[2-d]pyrimidin-2-amine] the value was 0.0087 µM; for `Nc1nc(NC2CCCNC2)c2c(n1)-c1ccccc1CCC2` (stereo not drawn) [Example 121, N^4-piperidin-3-yl-6,7-dihydro-5H-benzo[6,7]cyclohepta[1,2-d]pyrimidine-2,4-diamine], 0.407 µM; for `CN[C@@H]1CCN(c2nc(N)nc3c2CCCCc2ccccc2-3)C1` [Example 54, 4-[(3R)-3-(methylamino)pyrrolidin-1-yl]-5,6,7,8-tetrahydrobenzo[7,8]cycloocta[1,2-d]pyrimidin-2-amine], 0.032 µM. `CN[C@@H]1CCN(c2nc(N)nc3c2CCOc2cc(C)ccc2-3)C1` [Example 49, 9-methyl-4-[(3R)-3-(methylamino)pyrrolidin-1-yl]-5,6-dihydro[1]benzoxepino[5,4-d]pyrimidin-2-amine] had a Potency of 0.039 µM. The figure for `CN1CC[C@@H](Oc2nc(N)nc3c2CCCc2ccccc2-3)C1` [Example 70, 4-((R)-1-Methyl-pyrrolidin-3-yloxy)-6,7-dihydro-5H-benzo[6,7]cyclohepta[1,2-d]pyrimidin-2-ylamine] is 0.037 µM; for `Nc1nc2c(c(N3CC4CNCC3C4)n1)CCCc1ccccc1-2` (stereo not drawn) [Example 81, 4-(3,6-Diaza-bicyclo[3.2.1]oct-6-yl)-6,7-dihydro-5H-benzo[6,7]cyclohepta[1,2-d]pyrimidin-2-ylamine] it is 4.169 µM; for `Nc1nc2c(c(N3CC(N)C3)n1)CCCCc1ccccc1-2` [Example 57, 4-(3-aminoazetidin-1-yl)-5,6,7,8-tetrahydrobenzo[7,8]cycloocta[1,2-d]pyrimidin-2-amine] it is 0.562 µM.

Regarding `Nc1nc2c(c(N3CC[C@H](N)C3)n1)CCCCc1ccccc1-2` [Example 56, 4-[(3S)-3-aminopyrrolidin-1-yl]-5,6,7,8-tetrahydrobenzo[7,8]cycloocta[1,2-d]pyrimidin-2-amine], the Potency came to 0.115 µM. `CN1CCCC(Oc2nc(N)nc3c2CCCc2ccccc2-3)C1` (stereo not drawn) [Example 69, 4-(1-Methyl-piperidin-3-yloxy)-6,7-dihydro-5H-benzo[6,7]cyclohepta[1,2-d]pyrimidin-2-ylamine]: the Potency stood at 3.162 µM. The figure for `CC(=O)Nc1cccc2c1-c1nc(N)nc(N3CCNCC3)c1CCC2` [Example 132, N-(2-Amino-4-piperazin-1-yl-6,7-dihydro-H-benzo[6,7]cyclohepta[1,2-d]pyrimidin-11-yl)-acetamide] is 1.096 µM; for `CN1CC2CC(C1)N(c1nc(N)nc3c1CCCc1ccccc1-3)C2` (stereo not drawn) [Example 86, 4-(3-Methyl-3,6-diaza-bicyclo[3.2.1]oct-6-yl)-6,7-dihydro-5H-benzo[6,7]cyclohepta[1,2-d]pyrimidin-2-ylamine] it is 0.891 µM; for `O=C(O)c1nc2c(c(N3CC4CCCNC4C3)n1)CCCc1ccccc1-2` (stereo not drawn) [Example 134, 4-(Octahydro-pyrrolo[3,4-b]pyridin-6-yl)-6,7-dihydro-5H-benzo[6,7]cyclohepta[1,2-d]pyrimidine-2-carboxylic acid] it is 11.885 µM. The figure for `CN[C@@H]1CCN(c2nc(N)nc3c2SCCc2ccccc2-3)C1` [Example 107, 4-((R)-3-Methylamino-pyrrolidin-1-yl)-6,7-dihydro-5-thia-1,3-diaza-dibenzo[a,c]cyclohepten-2-ylamine] is 0.011 µM. The figure for `CN[C@@H]1CCN(c2nc(N)nc3c2CCOc2cc(Cl)ccc2-3)C1` [Example 48, 9-chloro-4-[(3R)-3-(methylamino)pyrrolidin-1-yl]-5,6-dihydro[1]benzoxepino[5,4-d]pyrimidin-2-amine] is 0.043 µM.

In the case of `CNCC(=O)Nc1nc2c(c(N3CCNCC3)n1)CCCc1ccccc1-2` [Example 88, 2-Methylamino-N-(4-piperazin-1-yl-6,7-dihydro-5H-benzo[6,7]cyclohepta[1,2-d]pyrimidin-2-yl)-acetamide], the Potency was 0.209 µM. `CN[C@@H]1CCN(c2nc(N)nc3c2CCCc2cc4c(cc2-3)CCCC4)C1` [Example 97, 4-((R)-3-Methylamino-pyrrolidin-1-yl)-6,7,9,10,11,12-hexahydro-5H-1,3-diaza-benzo[3,4]cyclohepta[1,2-b]naphthalen-2-ylamine]: the Potency came out at 0.029 µM. For `Nc1nc2c(c(N3CCNCCNCC3)n1)CCCc1ccccc1-2` [Example 94, 4-[1,4,7]Triazonan-1-yl-6,7-dihydro-5H-benzo[6,7]cyclohepta[1,2-d]pyrimidin-2-ylamine] the value was 0.0091 µM. The figure for `N#Cc1ccc2c(c1)OCCc1c-2nc(N)nc1N1CC2CCCNC2C1` (stereo not drawn) [Example 104, 2-Amino-4-octahydro-pyrrolo[3,4-b]pyridin-6-yl-5,6-dihydro-7-oxa-1,3-diaza-dibenzo[a,c]cycloheptene-9-carbonitrile] is 0.141 µM. The figure for `CN[C@@H]1CCN(c2nc(N)nc3c2[S+]([O-])CCc2ccccc2-3)C1` (stereo partly drawn) [Example 112, 4-((R)-3-Methylamino-pyrrolidin-1-yl)-5-oxo-6,7-dihydro-5-thia-1,3-diaza-dibenzo[a,c]cyclohepten-2-ylamine] is 2.455 µM; for `Nc1nc2c(c(N3CC[C@H]4CNC[C@H]43)n1)CCCc1ccccc1-2` [Example 119, (3aS,6aS)-4-(Hexahydro-pyrrolo[3,4-b]pyrrol-1-yl)-6,7-dihydro-5H-benzo[6,7]cyclohepta[1,2-d]pyrimidin-2-amine] it is 0.269 µM. With `COC(=O)c1ccc2c(c1)OCCc1c-2nc(N)nc1N1CC2CCCNC2C1` (stereo not drawn) [Example 108, 2-Amino-4-octahydro-pyrrolo[3,4-b]pyridin-6-yl-5,6-dihydro-7-oxa-1,3-diaza-dibenzo[a,c]cycloheptene-9-carboxylic acid methyl ester], the Potency amounted to 0.053 µM. For `CC1Cc2c(nc(N)nc2N2CCNCC2)-c2ccccc21` (stereo not drawn) [Example 4, 6-Methyl-4-piperazin-1-yl-5,6-dihydro-benzo[h]quinazolin-2-ylamine] the value was 0.398 µM.

Source of the values: patent US8735411B2, “Macrocyclic benzofused pyrimidine derivatives” (AbbVie Inc., priority 2006, dated 2014).
